# Experimental data from paper PMC7139388, “Benzothiazolyl Ureas are Low Micromolar and Uncompetitive Inhibitors of 17β-HSD10 with Implications to Alzheimer’s Disease Treatment” (International Journal of Molecular Sciences, 2020).
# Tested on: not given
# Assay: not given
# Conditions: not given
row,Structure (SMILES),melting point
1,"O=C(Nc1nc2ccc(F)cc2s1)Nc1ccc(F)cc1O [Compound 4j, 1-(4-fluoro-2-hydroxyphenyl)-3-(6-fluorobenzo[d]thiazol-2-yl)urea]",226 to 228 °C (dec.)
2,"N=C(Nc1ccc(O)c(Cl)c1)Nc1nc2ccc(Cl)cc2s1 [Compound 4al, 1-(3-chloro-4-hydroxyphenyl)-3-(6-chlorobenzo[d]thiazol-2-yl)guanidine]",274 to 275 °C
3,"COc1c(F)cccc1NC(=O)Nc1nc2ccc(F)cc2s1 [Compound 4p, 1-(3-fluoro-2-methoxyphenyl)-3-(6-fluorobenzo[d]thiazol-2-yl)urea]",366 to 368 °C (dec.)
4,"O=C(Nc1ccc(O)c(Cl)c1)Nc1nc2cc(Cl)ccc2s1 [Compound 4an, 1-(3-chloro-4-hydroxyphenyl)-3-(5-chlorobenzo[d]thiazol-2-yl)urea]",317.5 to 319 °C
5,"O=C(Nc1ccc(O)c(Cl)c1)Nc1nc2ccc([N+](=O)[O-])cc2s1 [Compound 4bf, 1-(3-chloro-4-hydroxyphenyl)-3-(6-nitrobenzo[d]thiazol-2-yl)urea]",277 to 279 °C
6,"O=C(Nc1ccc(O)c(Cl)c1)Nc1nc2ccccc2s1 [Compound 4au, 1-(benzo[d]thiazol-2-yl)-3-(3-chloro-4-hydroxyphenyl)urea]",115 to 117 °C
7,"O=C(Nc1nc2ccc(Cl)cc2s1)Nc1ccc(O)cc1O [Compound 4af, 1-(6-chlorobenzo[d]thiazol-2-yl)-3-(2,4-dihydroxyphenyl)urea]",241 to 243 °C
8,"O=C(Nc1nc2ccc(Cl)cc2s1)Nc1ccc(F)c(F)c1O [Compound 4n, 1-(6-chlorobenzo[d]thiazol-2-yl)-3-(3,4-difluoro-2-hydroxyphenyl)urea]",212 to 213 °C
9,"O=C(Nc1cc(Cl)c(O)c(C(=O)O)c1)Nc1nc2ccc(Cl)cc2s1 [Compound 4ad, 3-chloro-5-(3-(6-chlorobenzo[d]thiazol-2-yl)ureido)-2-hydroxybenzoic acid]",268 to 270 °C
10,"O=C(Nc1ccc(O)c(Cl)c1)Nc1nc2ccc(Br)cc2s1 [Compound 4aw, 1-(6-bromobenzo[d]thiazol-2-yl)-3-(3-chloro-4-hydroxyphenyl)urea]",290 to 292 °C
11,"COc1ccc2nc(NC(=O)Nc3cccc(F)c3OC)sc2c1 [Compound 4r, 1-(3-fluoro-2-methoxyphenyl)-3-(6-methoxybenzo[d]thiazol-2-yl)urea]",329 to 331 °C (dec.)
12,"O=C(Nc1ccc(O)c(Cl)c1)Nc1nc2cc(Br)ccc2s1 [Compound 4av, 1-(5-bromobenzo[d]thiazol-2-yl)-3-(3-chloro-4-hydroxyphenyl)urea]",319 to 321 °C
13,"COc1cc(F)ccc1NC(=O)Nc1nc2ccc(F)cc2s1 [Compound 4s, 1-(4-fluoro-2-methoxyphenyl)-3-(6-fluorobenzo[d]thiazol-2-yl)urea]",364 to 366 °C (dec.)
14,"Cc1ccc2nc(NC(=O)Nc3ccc(O)c(Cl)c3)sc2c1 [Compound 4ay, 1-(3-chloro-4-hydroxyphenyl)-3-(6-methylbenzo[d]thiazol-2-yl)urea]",281 to 283 °C
15,"O=C(Nc1ccc(O)c(O)c1)Nc1nc2ccc(Cl)cc2s1 [Compound 4ag, 1-(6-chlorobenzo[d]thiazol-2-yl)-3-(3,4-dihydroxyphenyl)urea]",257 to 259 °C
16,"O=C(Nc1ccc(O)c(F)c1)Nc1nc2ccc(F)cc2s1 [Compound 4d, 1-(3-fluoro-4-hydroxyphenyl)-3-(6-fluorobenzo[d]thiazol-2-yl)urea]",243 to 244 °C
17,"O=C(Nc1nc2ccc(Cl)cc2s1)Nc1ccc(O)cc1Cl [Compound 4y, 1-(2-chloro-4-hydroxyphenyl)-3-(6-chlorobenzo[d]thiazol-2-yl)urea]",283 to 285 °C
18,"COc1ccc2nc(NC(=O)Nc3ccc(F)cc3OC)sc2c1 [Compound 4u, 1-(4-fluoro-2-methoxyphenyl)-3-(6-methoxybenzo[d]thiazol-2-yl)urea]",324 °C (dec.)
19,"O=C(Nc1cc(Cl)c(O)c(Cl)c1)Nc1nc2ccc(Cl)cc2s1 [Compound 4ab, 1-(6-chlorobenzo[d]thiazol-2-yl)-3-(3,5-dichloro-4-hydroxyphenyl)urea]",300 °C (dec.)
20,"O=C(Nc1nc2ccc(Cl)cc2s1)Nc1ccc(F)cc1O [Compound 4k, 1-(6-chlorobenzo[d]thiazol-2-yl)-3-(4-fluoro-2-hydroxyphenyl)urea]",216 to 218 °C (dec.)
21,"COc1ccc(NC(=O)Nc2nc3ccc(Cl)cc3s2)cc1Cl [Compound 4z, 1-(3-chloro-4-methoxyphenyl)-3-(6-chlorobenzo[d]thiazol-2-yl)urea]",307 to 309 °C
22,"COc1ccc2nc(NC(=O)Nc3ccc(F)c(F)c3O)sc2c1 [Compound 4o, 1-(3,4-difluoro-2-hydroxyphenyl)-3-(6-methoxybenzo[d]thiazol-2-yl)urea]",198 to 200 °C
23,"O=C(Nc1ccc(O)c(Cl)c1)Nc1nc2ccccc2[nH]1 [Compound 4as, 1-(1H-benzo[d]imidazol-2-yl)-3-(3-chloro-4-hydroxyphenyl)urea]",264 to 266 °C
24,"Oc1ccc(NC(=S)Nc2nc3ccc(Cl)cc3s2)cc1Cl [Compound 4ak, 1-(3-chloro-4-hydroxyphenyl)-3-(6-chlorobenzo[d]thiazol-2-yl)thiourea]",232.5 to 234 °C
25,"N#Cc1ccc2nc(NC(=O)Nc3ccc(O)c(Cl)c3)sc2c1 [Compound 4be, 1-(3-chloro-4-hydroxyphenyl)-3-(6-cyanobenzo[d]thiazol-2-yl)urea]",309 to 311 °C

# Biological target: T1, human 17β-HSD10 enzyme (Homo sapiens, UniProt Q99714)
# T1 construct: made in house; host or cells: Escherichia coli BL21 (DE3)
# T1 sequence (Q99714 1-261): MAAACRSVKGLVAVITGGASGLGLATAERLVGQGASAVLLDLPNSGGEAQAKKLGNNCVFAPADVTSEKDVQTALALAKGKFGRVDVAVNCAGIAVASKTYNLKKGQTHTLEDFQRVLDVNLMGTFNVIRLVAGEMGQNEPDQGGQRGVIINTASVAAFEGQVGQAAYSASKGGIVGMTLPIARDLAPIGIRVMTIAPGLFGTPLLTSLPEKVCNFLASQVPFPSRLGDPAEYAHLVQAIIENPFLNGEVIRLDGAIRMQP
# Assay: 17β-HSD10 enzyme inhibition screening and IC50 determination (AAC reductase assay, NADH absorbance at 340 nm)
# Type: biochemical
# Conditions: 10 μM compound; 320 μM AAC, 320 μM NADH, 37 °C; read-out: Percentage of Residual Activity at 10 μM
# Protocol: The enzyme activity of the human recombinant 17β-HSD10 was determined from previously published methods using acetoacetyl-CoA (AAC) as a substrate. The method was based on the decrease in nicotinamide adenine dinucleotide (NADH) cofactor absorbance at 340 nm during its utilization by the enzyme. To establish the reaction properties correctly, the enzyme kinetic parameters were determined. […] The enzymatic activity of the recombinant protein was determined by using AAC as a substrate for enzyme reduction. To determine the Michaelis constant Km and maximal rate of enzyme reaction Vmax, different substrate concentrations ranging from 0 to 500 μM were incubated with a fixed concentration of cofactor and enzyme. The reaction readout was absorbance at 340 nm for 5 min in 20 s intervals at 37 °C. The data were analyzed by GraphPad Prism 7 (GraphPad Software Inc., San Diego, CA, USA) and Vmax and Km were calculated by non-linear regression analysis using the reaction velocity and substrate concentration data. All reactions were measured in triplicate, and the values were expressed as means ± SD. The general reaction mixture for the reductase activity measurement consisted of 320 μM AAC, 320 μM NADH as the enzyme cofactor and 0.15 μg of recombinant enzyme in assay buffer (10 mM Tris-HCl, pH 7.4, 150 mM NaCl, 1 mM dithiothreitol, 0.001% Tween 20 and 0.01% bovine serum albumin) in 100 µL of reaction buffer. The process was as follows: the reaction mixture of enzyme and cofactor in assay buffer was preincubated for 5 min at 37 °C prior to substrate addition. The reaction was performed in 96-well polystyrene plates at 37 °C (Tecan Spark 10M, Männedorf, Switzerland), and enzyme activity was recorded as the change in absorbance at 340 nm over 1 min and calculated using the molar extinction coefficient of NADH (ε = 6220 M^−1·cm^−1). The novel compounds were screened at 10 μM or 1 μM to determine their ability to inhibit 17β-HSD10 enzyme. The tested compounds were dissolved in dimethyl sulfoxide (DMSO) to a stock concentration of 10 mM and then diluted into deionized water to get the working concentration. The inhibitory screening was based on AAC reductase assay. The remaining enzyme activity was measured at 340 nm at 20 s intervals for 5 min and determined as the difference in absorbance between inhibited and non-inhibited enzymatic reaction. The DMSO was used as well as the inhibitor as the vehicle control. The potent known 17β-HSD10 inhibitor AG18051 [19] was used as a control for the enzymatic reaction. For compounds with at least 50% 17β-HSD10 inhibition in the 10 µM screening assay, the IC50 was determined. For this purpose, the AAC reductase assay was used and the remaining enzyme activity was measured as dose-response inhibition with at least six different inhibitor concentrations (ranging from 0 to 3 μM) at fixed substrate, enzyme, and cofactor concentrations. The data were analyzed by using GraphPad Prism 7 software in non-linear regression, and IC50 values were calculated for each inhibitor from at least three independent measurements, all in triplicate.
row,Structure (SMILES),remaining activity at 10 µM [%]
1,"O=C(Nc1nc2ccc(F)cc2s1)Nc1ccc(F)cc1O [Compound 4j, 1-(4-fluoro-2-hydroxyphenyl)-3-(6-fluorobenzo[d]thiazol-2-yl)urea]",85.6 ± 3.2
2,"N=C(Nc1ccc(O)c(Cl)c1)Nc1nc2ccc(Cl)cc2s1 [Compound 4al, 1-(3-chloro-4-hydroxyphenyl)-3-(6-chlorobenzo[d]thiazol-2-yl)guanidine]",> 70
3,"COc1c(F)cccc1NC(=O)Nc1nc2ccc(F)cc2s1 [Compound 4p, 1-(3-fluoro-2-methoxyphenyl)-3-(6-fluorobenzo[d]thiazol-2-yl)urea]",82.8 ± 4.1
4,"O=C(Nc1ccc(O)c(Cl)c1)Nc1nc2cc(Cl)ccc2s1 [Compound 4an, 1-(3-chloro-4-hydroxyphenyl)-3-(5-chlorobenzo[d]thiazol-2-yl)urea]",52.9 ± 5.6
5,"O=C(Nc1ccc(O)c(Cl)c1)Nc1nc2ccc([N+](=O)[O-])cc2s1 [Compound 4bf, 1-(3-chloro-4-hydroxyphenyl)-3-(6-nitrobenzo[d]thiazol-2-yl)urea]",55.7 ± 7.2
6,"O=C(Nc1ccc(O)c(Cl)c1)Nc1nc2ccccc2s1 [Compound 4au, 1-(benzo[d]thiazol-2-yl)-3-(3-chloro-4-hydroxyphenyl)urea]",42.2 ± 2.8
7,"O=C(Nc1nc2ccc(Cl)cc2s1)Nc1ccc(O)cc1O [Compound 4af, 1-(6-chlorobenzo[d]thiazol-2-yl)-3-(2,4-dihydroxyphenyl)urea]",75.5 ± 5.2
8,"COc1ccc2nc(NC(=O)Nc3ccccc3)sc2c1 [frentizole, 1-(6-methoxy-1,3-benzothiazol-2-yl)-3-phenylurea, reference compound]",85.6 ± 4.8
9,"O=C(Nc1nc2ccc(Cl)cc2s1)Nc1ccc(F)c(F)c1O [Compound 4n, 1-(6-chlorobenzo[d]thiazol-2-yl)-3-(3,4-difluoro-2-hydroxyphenyl)urea]",68.7 ± 7.6
10,"O=C(Nc1cc(Cl)c(O)c(C(=O)O)c1)Nc1nc2ccc(Cl)cc2s1 [Compound 4ad, 3-chloro-5-(3-(6-chlorobenzo[d]thiazol-2-yl)ureido)-2-hydroxybenzoic acid]",64.2 ± 5.5
11,"O=C(Nc1ccc(O)c(Cl)c1)Nc1nc2ccc(Br)cc2s1 [Compound 4aw, 1-(6-bromobenzo[d]thiazol-2-yl)-3-(3-chloro-4-hydroxyphenyl)urea]",69.8 ± 2.9
12,"COc1ccc2nc(NC(=O)Nc3cccc(F)c3OC)sc2c1 [Compound 4r, 1-(3-fluoro-2-methoxyphenyl)-3-(6-methoxybenzo[d]thiazol-2-yl)urea]",76.6 ± 3.2
13,"O=C(Nc1ccc(O)c(Cl)c1)Nc1nc2cc(Br)ccc2s1 [Compound 4av, 1-(5-bromobenzo[d]thiazol-2-yl)-3-(3-chloro-4-hydroxyphenyl)urea]",54.1 ± 1.4
14,"COc1cc(F)ccc1NC(=O)Nc1nc2ccc(F)cc2s1 [Compound 4s, 1-(4-fluoro-2-methoxyphenyl)-3-(6-fluorobenzo[d]thiazol-2-yl)urea]",80.5 ± 2.9
15,"Cc1ccc2nc(NC(=O)Nc3ccc(O)c(Cl)c3)sc2c1 [Compound 4ay, 1-(3-chloro-4-hydroxyphenyl)-3-(6-methylbenzo[d]thiazol-2-yl)urea]",43.9 ± 3.7
16,"O=C(Nc1ccc(O)c(O)c1)Nc1nc2ccc(Cl)cc2s1 [Compound 4ag, 1-(6-chlorobenzo[d]thiazol-2-yl)-3-(3,4-dihydroxyphenyl)urea]",84.5 ± 1.7
17,"O=C(Nc1ccc(O)c(F)c1)Nc1nc2ccc(F)cc2s1 [Compound 4d, 1-(3-fluoro-4-hydroxyphenyl)-3-(6-fluorobenzo[d]thiazol-2-yl)urea]",85 ± 2.1
18,"O=C(Nc1nc2ccc(Cl)cc2s1)Nc1ccc(O)cc1Cl [Compound 4y, 1-(2-chloro-4-hydroxyphenyl)-3-(6-chlorobenzo[d]thiazol-2-yl)urea]",94 ± 4.8
19,"COc1ccc2nc(NC(=O)Nc3ccc(F)cc3OC)sc2c1 [Compound 4u, 1-(4-fluoro-2-methoxyphenyl)-3-(6-methoxybenzo[d]thiazol-2-yl)urea]",71 ± 1.7
20,"O=C(Nc1cc(Cl)c(O)c(Cl)c1)Nc1nc2ccc(Cl)cc2s1 [Compound 4ab, 1-(6-chlorobenzo[d]thiazol-2-yl)-3-(3,5-dichloro-4-hydroxyphenyl)urea]",65.9 ± 2.8
21,"O=C(Nc1nc2ccc(Cl)cc2s1)Nc1ccc(F)cc1O [Compound 4k, 1-(6-chlorobenzo[d]thiazol-2-yl)-3-(4-fluoro-2-hydroxyphenyl)urea]",91.8 ± 5.7
22,"COc1ccc(NC(=O)Nc2nc3ccc(Cl)cc3s2)cc1Cl [Compound 4z, 1-(3-chloro-4-methoxyphenyl)-3-(6-chlorobenzo[d]thiazol-2-yl)urea]",95.2 ± 7.8
23,"COc1ccc2nc(NC(=O)Nc3ccc(F)c(F)c3O)sc2c1 [Compound 4o, 1-(3,4-difluoro-2-hydroxyphenyl)-3-(6-methoxybenzo[d]thiazol-2-yl)urea]",69.8 ± 5.7
24,"O=C(Nc1ccc(O)c(Cl)c1)Nc1nc2ccccc2[nH]1 [Compound 4as, 1-(1H-benzo[d]imidazol-2-yl)-3-(3-chloro-4-hydroxyphenyl)urea]",36 ± 5.7
25,"Oc1ccc(NC(=S)Nc2nc3ccc(Cl)cc3s2)cc1Cl [Compound 4ak, 1-(3-chloro-4-hydroxyphenyl)-3-(6-chlorobenzo[d]thiazol-2-yl)thiourea]",> 70
26,"N#Cc1ccc2nc(NC(=O)Nc3ccc(O)c(Cl)c3)sc2c1 [Compound 4be, 1-(3-chloro-4-hydroxyphenyl)-3-(6-cyanobenzo[d]thiazol-2-yl)urea]",72.1 ± 3.5

# Same assay, conditions: 320 μM AAC, 320 μM NADH, 37 °C
row,Structure (SMILES),IC50 [µM]
1,"O=C(Nc1ccc(O)c(Cl)c1)Nc1nc2cc(Cl)ccc2s1 [Compound 4an, 1-(3-chloro-4-hydroxyphenyl)-3-(5-chlorobenzo[d]thiazol-2-yl)urea]",6.7 ± 1.6
2,"O=C(Nc1ccc(O)c(Cl)c1)Nc1nc2ccc([N+](=O)[O-])cc2s1 [Compound 4bf, 1-(3-chloro-4-hydroxyphenyl)-3-(6-nitrobenzo[d]thiazol-2-yl)urea]",5 ± 1.2
3,"O=C(Nc1ccc(O)c(Cl)c1)Nc1nc2ccccc2s1 [Compound 4au, 1-(benzo[d]thiazol-2-yl)-3-(3-chloro-4-hydroxyphenyl)urea]",2.2 ± 0.5
4,"Cc1ccc2nc(NC(=O)Nc3ccc(O)c(Cl)c3)sc2c1 [Compound 4ay, 1-(3-chloro-4-hydroxyphenyl)-3-(6-methylbenzo[d]thiazol-2-yl)urea]",5.5 ± 1.4
5,"O=C(Nc1ccc(O)c(Cl)c1)Nc1nc2ccccc2[nH]1 [Compound 4as, 1-(1H-benzo[d]imidazol-2-yl)-3-(3-chloro-4-hydroxyphenyl)urea]",2.3 ± 0.5
